Results taken from ChEMBL document CHEMBL5576124, “Discovery of an Exceptionally Orally Bioavailable and Potent HPK1 PROTAC with Enhancement of Antitumor Efficacy of Anti-PD-L1 Therapy” (J Med Chem, 2024).
Active and inactive are the calls of the source. The rule behind the calls is not given here.

Legend:
[1] = molecular target: T1, Protein cereblon/Mitogen-activated protein kinase kinase kinase kinase 1 (Homo sapiens, UniProt Q92918+Q96SW2); assay: PROTAC activity at CRBN/HPK1 in human Jurkat cells assessed as degradation of HPK1 protein incubated for 24 hrs by Western blotting analysis; assay type: cell-based
Target sequence in this assay (Q92918 whole entry): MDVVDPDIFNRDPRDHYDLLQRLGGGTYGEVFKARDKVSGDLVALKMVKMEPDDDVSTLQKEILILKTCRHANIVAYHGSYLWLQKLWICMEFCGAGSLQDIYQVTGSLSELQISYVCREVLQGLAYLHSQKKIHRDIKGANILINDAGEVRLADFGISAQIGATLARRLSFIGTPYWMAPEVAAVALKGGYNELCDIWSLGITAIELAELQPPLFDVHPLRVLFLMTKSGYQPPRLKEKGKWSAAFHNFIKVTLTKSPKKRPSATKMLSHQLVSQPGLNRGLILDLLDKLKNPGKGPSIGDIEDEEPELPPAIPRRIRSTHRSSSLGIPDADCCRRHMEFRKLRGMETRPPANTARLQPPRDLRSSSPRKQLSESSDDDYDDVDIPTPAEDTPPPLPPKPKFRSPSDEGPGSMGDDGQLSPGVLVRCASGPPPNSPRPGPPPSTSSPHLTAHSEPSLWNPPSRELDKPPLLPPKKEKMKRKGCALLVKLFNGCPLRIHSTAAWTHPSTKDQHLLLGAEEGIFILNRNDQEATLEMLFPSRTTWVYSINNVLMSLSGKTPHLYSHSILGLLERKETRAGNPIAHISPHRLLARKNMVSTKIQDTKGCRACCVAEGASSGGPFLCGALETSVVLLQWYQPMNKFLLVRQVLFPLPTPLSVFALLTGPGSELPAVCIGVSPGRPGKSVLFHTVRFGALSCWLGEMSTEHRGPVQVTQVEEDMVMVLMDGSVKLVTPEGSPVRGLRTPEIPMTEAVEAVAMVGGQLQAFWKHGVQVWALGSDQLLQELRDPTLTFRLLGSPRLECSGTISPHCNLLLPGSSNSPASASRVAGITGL
Target sequence in this assay (Q96SW2 whole entry): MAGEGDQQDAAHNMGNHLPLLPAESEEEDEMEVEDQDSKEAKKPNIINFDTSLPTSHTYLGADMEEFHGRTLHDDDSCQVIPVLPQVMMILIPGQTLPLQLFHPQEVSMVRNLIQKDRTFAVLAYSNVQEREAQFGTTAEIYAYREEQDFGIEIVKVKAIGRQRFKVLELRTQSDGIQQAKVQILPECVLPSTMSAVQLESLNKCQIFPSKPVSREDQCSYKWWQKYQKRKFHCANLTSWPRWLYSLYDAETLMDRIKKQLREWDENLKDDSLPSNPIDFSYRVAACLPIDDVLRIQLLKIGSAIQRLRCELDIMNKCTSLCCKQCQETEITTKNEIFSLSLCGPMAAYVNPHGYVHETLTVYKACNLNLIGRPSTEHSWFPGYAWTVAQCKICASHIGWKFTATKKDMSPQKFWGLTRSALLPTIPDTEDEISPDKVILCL

[2] = molecular target: T1, Protein cereblon/Mitogen-activated protein kinase kinase kinase kinase 1; assay: PROTAC activity at CRBN/HPK1 in human Jurkat cells assessed as maximal degradation of HPK1 protein incubated for 24 hrs by Western blotting analysis relative to control; assay type: cell-based
Target sequence in this assay (Q92918 whole entry, looked up): as the sequence (Q92918 whole entry) above
Target sequence in this assay (Q96SW2 whole entry, looked up): as the sequence (Q96SW2 whole entry) above

[3] = Half life in Sprague-Dawley rat at 10 mg/kg,po measured upto 24 hrs by LC-MS analysis; assay type: ADME, organism-based; details: in vivo
[4] = Tmax in Sprague-Dawley rat at 10 mg/kg,po measured upto 24 hrs by LC-MS analysis; assay type: ADME, organism-based; details: in vivo
[5] = Cmax in Sprague-Dawley rat at 10 mg/kg,po measured upto 24 hrs by LC-MS analysis; assay type: ADME, organism-based; details: in vivo
[6] = AUC (0 to t) in Sprague-Dawley rat at 10 mg/kg,po measured upto 24 hrs by LC-MS analysis; assay type: ADME, organism-based; details: in vivo
[7] = MRT in Sprague-Dawley rat at 10 mg/kg,po measured upto 24 hrs by LC-MS analysis; assay type: ADME, organism-based; details: in vivo
[8] = test system: T-cell line; assay: Immunostimulatory activity in human T cell assessed as increase in IL-2 secretion at 10 uM relative to control; assay type: functional
[9] = test system: Jurkat; assay: Antiproliferative activity against human Jurkat cells assessed as inhibition of cell growth at 2 uM incubated for 3 days by CCK-8 assay; assay type: functional, cell-based; details: time 3.0 day
[10] = test system: Jurkat; assay: Antiproliferative activity against human Jurkat cells assessed as inhibition of cell growth at 10 uM incubated for 3 days by CCK-8 assay; assay type: functional, cell-based; details: time 3.0 day
[11] = molecular target: Mitogen-activated protein kinase kinase kinase kinase 1 (Homo sapiens, UniProt Q92918); assay: Inhibition of HPK1 (unknown origin)
[12] = test system: CT26; assay: Antitumor activity against mouse CT26 cells implanted BALB/c mouse model assessed as tumor growth inhibition at 25 mg/kg,po administrated once daily for 15 days relative to control; assay type: functional; details: CT26, 360 h, time 15 day, read-out: TGI
[13] = molecular target: T1, Protein cereblon/Mitogen-activated protein kinase kinase kinase kinase 1; assay: PROTAC activity at CRBN/HPK1 in human Jurkat cells assessed as maximal degradation of HPK1 protein incubated for 24 hrs by Nano-Glo luminescence assay relative to control; assay type: cell-based
Target sequence in this assay (Q92918 whole entry, looked up): as the sequence (Q92918 whole entry) above
Target sequence in this assay (Q96SW2 whole entry, looked up): as the sequence (Q96SW2 whole entry) above

Chain of Mitogen-activated protein kinase kinase kinase kinase 1 (Q92918 whole entry): as the sequence (Q92918 whole entry) above

SMILES | DC50 [1] | Emax [2] | also measured
Cc1cc(-c2c[nH]c3ncc(-c4ccc(C5CCN(C6CN(c7cc8c(cc7F)C(=O)N(C7CCC(=O)NC7=O)C8=O)C6)CC5)cc4)nc23)ccc1C(=O)N(C)C (stereo not drawn) | 0.0788 µM | 84.2% | 
Cc1cc(-c2c[nH]c3ncc(-c4ccc(N5CCN(CCC6CCN(c7ccc8c(c7)C(=O)N(C7CCC(=O)NC7=O)C8=O)CC6)CC5)cc4)nc23)ccc1C(=O)N(C)C (stereo not drawn) | > 10 µM | 48.2% | 
Cc1cc(-c2c[nH]c3ncc(-c4ccc(C5CCN(C6CN(C(=O)CNc7cccc8c7C(=O)N(C7CCC(=O)NC7=O)C8=O)C6)CC5)cc4)nc23)ccc1C(=O)N(C)C (stereo not drawn) | > 10 µM | 22.7% | 
Cc1cc(-c2c[nH]c3ncc(-c4ccc(C5CCN(C(=O)CCOc6cccc7c6C(=O)N(C6CCC(=O)NC6=O)C7=O)CC5)cc4)nc23)ccc1C(=O)N(C)C (stereo not drawn) | > 10 µM | 6.7% | 
Cc1cc(-c2c[nH]c3ncc(-c4ccc(N5CCN(CC6CN(c7ccc8c(c7)C(=O)N(C7CCC(=O)NC7=O)C8=O)C6)CC5)cc4)nc23)ccc1C(=O)N(C)C (stereo not drawn) | 0.134 µM | 94.6% | half-life [3]: 4.86 h; Tmax [4]: 3 h; Cmax [5]: 1500 ng/mL; AUC(0-t) at 24 h [6]: 16000 ng·h/mL; MRT [7]: 6.84 h
Cc1cc(-c2c[nH]c3ncc(-c4ccc(C5CCN(C(=O)C6CN(c7ccc8c(c7)C(=O)N(C7CCC(=O)NC7=O)C8=O)C6)CC5)cc4)nc23)ccc1C(=O)N(C)C (stereo not drawn) | > 10 µM | 42.6% | 
Cc1cc(-c2c[nH]c3ncc(-c4ccc(C5CCN(CC6CCN(c7ccc8c(c7)C(=O)N(C7CCC(=O)NC7=O)C8=O)CC6)CC5)cc4)nc23)ccc1C(=O)N(C)C (stereo not drawn) | 0.42 µM | 84.1% | 
Cc1cc(-c2c[nH]c3ncc(-c4ccc(N5CCN(c6cccc7c6C(=O)N(C6CCC(=O)NC6=O)C7=O)CC5)cc4)nc23)ccc1C(=O)N(C)C (stereo not drawn) | > 10 µM | 37.9% | half-life [3]: 4.4 h; Tmax [4]: 1 h; Cmax [5]: 602 ng/mL; AUC(0-t) at 24 h [6]: 4470 ng·h/mL; MRT [7]: 6.8 h
Cc1cc(-c2c[nH]c3ncc(-c4ccc(C5CCN(C6CN(C(=O)C7CN(c8ccc9c(c8)C(=O)N(C8CCC(=O)NC8=O)C9=O)C7)C6)CC5)cc4)nc23)ccc1C(=O)N(C)C (stereo not drawn) | > 10 µM | 39.4% | 
Cc1cc(-c2c[nH]c3ncc(-c4ccc(C5CCN(C6CN(C7CN(c8ccc9c(c8)C(=O)N(C8CCC(=O)NC8=O)C9=O)C7)C6)CC5)cc4)nc23)ccc1C(=O)N(C)C (stereo not drawn) | 0.295 µM | 58.1% | 
Cc1cc(-c2c[nH]c3ncc(-c4ccc(N5CCN(c6ccc7c(c6)C(=O)N(C6CCC(=O)NC6=O)C7=O)CC5)cc4)nc23)ccc1C(=O)N(C)C (stereo not drawn) | > 10 µM | 22.3% | 
Cc1cc(-c2c[nH]c3ncc(-c4ccc(N5CCN(CC6CCN(c7ccc8c(c7)C(=O)N(C7CCC(=O)NC7=O)C8=O)C6)CC5)cc4)nc23)ccc1C(=O)N(C)C (stereo not drawn) | 0.246 µM | 56.6% | 
Cc1cc(-c2c[nH]c3ncc(-c4ccc(C5CCN(CC6CCN(C7CN(c8ccc9c(c8)C(=O)N(C8CCC(=O)NC8=O)C9=O)C7)CC6)CC5)cc4)nc23)ccc1C(=O)N(C)C (stereo not drawn) | > 10 µM | 38% | 
Cc1cc(-c2c[nH]c3ncc(-c4ccc(C5CCN(C6CN(C(=O)C7CCN(c8ccc(NC9CCC(=O)NC9=O)cc8)CC7)C6)CC5)cc4)nc23)ccc1C(=O)N(C)C (stereo not drawn) | > 10 µM | 41.4% | 
Cc1cc(-c2c[nH]c3ncc(-c4ccc(C5CCN(C6CCN(c7ccc8c(c7)C(=O)N(C7CCC(=O)NC7=O)C8=O)C6)CC5)cc4)nc23)ccc1C(=O)N(C)C (stereo not drawn) | 0.094 µM | 76.6% | 
Cc1cc(-c2c[nH]c3ncc(-c4ccc(C5CCN(C6CN(C(=O)C7CCN(c8ccc(C(=O)NC9CCC(=O)NC9=O)cc8)CC7)C6)CC5)cc4)nc23)ccc1C(=O)N(C)C (stereo not drawn) | > 10 µM | 24.2% | 
Cc1cc(-c2c[nH]c3ncc(-c4ccc(C5CCN(C(=O)CNc6cccc7c6C(=O)N(C6CCC(=O)NC6=O)C7=O)CC5)cc4)nc23)ccc1C(=O)N(C)C (stereo not drawn) | > 10 µM | 0.1% | 

SMILES | DC50 [1] | Emax [2] | also measured
Cc1cc(-c2c[nH]c3ncc(-c4ccc(C5CCN(C6CN(c7cccc8c7C(=O)N(C7CCC(=O)NC7=O)C8=O)C6)CC5)cc4)nc23)ccc1C(=O)N(C)C (stereo not drawn) | 0.152 µM | 64.9% | 
Cc1cc(-c2c[nH]c3ncc(-c4ccc(C5CCN(C(=O)C6CCN(c7ccc8c(c7)C(=O)N(C7CCC(=O)NC7=O)C8=O)CC6)CC5)cc4)nc23)ccc1C(=O)N(C)C (stereo not drawn) | 1.75 µM | 63.6% | 
Cc1cc(-c2c[nH]c3ncc(-c4ccc(C5CCN(CC6CCN(c7ccc8c(c7)C(=O)N(C7CCC(=O)NC7=O)C8=O)C6)CC5)cc4)nc23)ccc1C(=O)N(C)C (stereo not drawn) | 0.0788 µM | 84.1% | 
Cc1cc(-c2c[nH]c3ncc(-c4ccc(C5CCN(C(=O)CCNc6cccc7c6C(=O)N(C6CCC(=O)NC6=O)C7=O)CC5)cc4)nc23)ccc1C(=O)N(C)C (stereo not drawn) | 0.962 µM | 63.6% | 
Cc1cc(-c2c[nH]c3ncc(-c4ccc(N5CCN(C6CN(c7ccc8c(c7)C(=O)N(C7CCC(=O)NC7=O)C8=O)C6)CC5)cc4)nc23)ccc1C(=O)N(C)C (stereo not drawn) | 0.0282 µM | 68.3% | 
Cc1cc(-c2c[nH]c3ncc(-c4ccc(C5CCN(C6CN(CC7CCN(c8ccc(N9CCC(=O)NC9=O)c(C)c8)CC7)C6)CC5)cc4)nc23)ccc1C(=O)N(C)C | 0.127 µM | 79.3% | 
Cc1cc(-c2c[nH]c3ncc(-c4ccc(C5CCN(C(=O)CCOCCOCCOc6cccc7c6C(=O)N(C6CCC(=O)NC6=O)C7=O)CC5)cc4)nc23)ccc1C(=O)N(C)C (stereo not drawn) | 0.245 µM | 56.6% | half-life [3]: 2.3 h; Tmax [4]: 0.5 h; Cmax [5]: 118 ng/mL; AUC(0-t) at 24 h [6]: 187 ng·h/mL; MRT [7]: 3.6 h
Cc1cc(-c2c[nH]c3ncc(-c4ccc(C5CCN(c6cccc7c6C(=O)N(C6CCC(=O)NC6=O)C7=O)CC5)cc4)nc23)ccc1C(=O)N(C)C (stereo not drawn) | > 10 µM | 2.8% | 
Cc1cc(-c2c[nH]c3ncc(-c4cc(C)c5c(c4)CN(C)CC5)nc23)ccc1C(=O)N(C)C |  |  | Activity [8]: 34.15%; Activity [9]: Active; Activity [10]: Active; IC50 [11]: 0.00582 µM; inhibition in vivo at 25 mg/kg [12]: 16.5%
Cc1cc(-c2c[nH]c3ncc(-c4ccc(C5CCN(CCC6CCN(c7ccc8c(c7)C(=O)N(C7CCC(=O)NC7=O)C8=O)CC6)CC5)cc4)nc23)ccc1C(=O)N(C)C (stereo not drawn) | 1.06 µM | 58.5% | 
Cc1cc(-c2c[nH]c3ncc(-c4ccc(C5CCN(c6ccc7c(c6)C(=O)N(C6CCC(=O)NC6=O)C7=O)CC5)cc4)nc23)ccc1C(=O)N(C)C (stereo not drawn) | > 10 µM | 3.4% | 
Cc1cc(-c2c[nH]c3ncc(-c4ccc(C5CCN(C6CN(C(=O)C7CCN(c8ccc9c(c8)C(=O)N(C8CCC(=O)NC8=O)C9=O)CC7)C6)CC5)cc4)nc23)ccc1C(=O)N(C)C (stereo not drawn) | > 10 µM | 30.1% | 
Cc1cc(-c2c[nH]c3ncc(-c4ccc(N5CCN(C6CCN(c7ccc8c(c7)C(=O)N(C7CCC(=O)NC7=O)C8=O)CC6)CC5)cc4)nc23)ccc1C(=O)N(C)C (stereo not drawn) | 0.0992 µM | 56.1% | 
Cc1cc(-c2c[nH]c3ncc(-c4ccc(N5CCN(CC6CCN(c7ccc8c(c7)C(=O)N(C7CCC(=O)NC7=O)C8=O)CC6)CC5)cc4)nc23)ccc1C(=O)N(C)C (stereo not drawn) | 0.0339 µM | 59.9% | half-life [3]: 16.7 h; Tmax [4]: 4 h; Cmax [5]: 636 ng/mL; AUC(0-t) at 24 h [6]: 9970 ng·h/mL; MRT [7]: 24.6 h
Cc1cc(F)c(Nc2nc(-c3ccc4c(c3)N(C3CC(N5CCCCC5)C3)C(=O)C43CCN(CCOCCOCCOCCOCCOCCOCCOCCNc4cccc5c4C(=O)N(C4CCC(=O)NC4=O)C5=O)CC3)cc3ncn(C(C)C)c23)cc1C(=O)NC(C)C (stereo not drawn) |  |  | Emax [13]: > 65%
Cc1cc(-c2c[nH]c3ncc(-c4ccc(C5CCN(C6CN(C(=O)Cc7ccc(NC8CCC(=O)NC8=O)cc7)C6)CC5)cc4)nc23)ccc1C(=O)N(C)C (stereo not drawn) | > 10 µM | 38.5% | 
